Reference: patent publication US8969549B2, “Antioxidant small molecules aimed at targeting metal-based oxidative stress in neurogenerative disorders” (Texas Christian University, priority 2013, dated 2015)

What was measured:
[1] = DPPH radical quenching assay; type: biochemical
Excerpt: Compound 2 (Chart 2) exists largely as the pyridol tautomer as confirmed by NMR. The reactivity of pyridol/pyridone based compounds such as chelidamic acid have shown reactivity with OH radicals in solution to form bis-pyridones and is a different mechanism than pyridine based compounds such as 1 (Chart 2). This reactivity is attributed to the enhanced antioxidant capacity observed. Chelidamic acid is the pyridone congener to the starting material used to produce 1. Therefore similar methodologies to produce 2 in gram scale quantities were employed.
As radicals are one product of miscompartmentalized metal ions, radical scavenging capability of compounds 1-3 (Chart 4) was tested using the DPPH assay. DPPH (2,2-diphenyl-1-picrylhydrazyl), is a dark purple (λmax=540 nm), stable free radical in solution that can be reduced to DPPHH in the presence of molecules with radical scavenging activity. This process results in a color change from dark purple to light yellow and can be followed spectroscopically by the decrease of the band at 540 nm. Applicants have, therefore, utilized this method to measure radical scavenging capability of their own organic molecules. BHT (butylhydroxytoluene) was used as a positive control due to its known antioxidant properties.
DPPH stock solution was prepared by dissolving 25 mg in 100 mL of absolute EtOH. The working radical solution was prepared by dilution with absolute EtOH to an absorbance of 1.3 at 512 nm. Stock solutions of the compounds tested were dissolved in DI H2O and EtOH 95% respectively and serial dilutions were made to get different concentrations. For the analysis 2 mL of the solutions were incubated with 2 mL of DPPH working solutions in the dark for 24 h. as well as 2 mL of DPPH working solution with 2 mL of H2O or EtOH to serve as blank. Analysis of the solutions was performed as follows: 1 mL of the sample solution was diluted with 1 mL of H2O shaken and the absorbance was measured at 515 nm.

FRDA cells [2] = assay: DCFH-DA ROS assay with BSO; type: cell-based, human
Procedure: FIG. 6 is a graph showing DCFH-DA fluorescent response in FRDA cells after 12 hours exposure to BSO [1 mM] with 1-4 [4 nM].
FIG. 7 is a graph of DCFH-DA fluorescent response in FRDA cells after 12 hours exposure to BSO [1 mM] showing dose dependence with 1.
FIG. 9 is a graph of DCFH-DA fluorescent response in FRDA cells after 12 hours exposure to BSO [1 mM] showing dose dependence with 1 and 2.
The antioxidant activity of compound 1 compared to compounds 2-3 (Chart 1) was then studied using the cell-permeable fluorophore 2,7′-Dichlorodihydrofluorescin diacetate (DCFH-DA) as an indicator for ROS. DCFH-DA diffuses into cells and is deacetylated by cellular esterases to non-fluorescent 2′,7′-Dichlorodihydrofluorescin (DCFH). This species is subsequently oxidized to the highly fluorescent 2′,7′-Dichlorodihydrofluorescein (DCF) species in the presence of ROS. The fluorescent intensity is directly proportional to the amount of ROS present in cell cytosol. BSO (2-amino-4-(butylsulfonimidoyl)butanoic acid) was used to inhibit the first step of de novo glutathione synthesis, allowing us to observe the elevated intra-cellular [ROS] are thereby observed.
Cellular studies were carried out to evaluate the intra-cellular antioxidant efficacy and toxicity of compound 2 (Chart 2) compared to 1 using the cell-permeable fluorophore 2,7′-dichlorodihydrofluorescin diacetate (DCFH-DA) as an indicator for ROS. DCFH-DA diffuses into cells and is deacetylated by cellular esterases to non-fluorescent 2′,7′-dichlorodihydrofluorescin (DCFH) which is subsequently oxidized to the highly fluorescent 2′,7′-dichlorodihydrofluorescein (DCF) species in the presence of ROS. The fluorescence intensity is directly proportional to the amount of ROS present in cell cytosol.^11 BSO (2-amino-4-(butylsulfonimidoyl)butanoic acid) is a commonly used model for oxidative stress via inhibition of cytosolic glutathione synthesis resulting in elevated intra-cellular [ROS] and an increased fluorescent signal in the presence of DCFH (FIG. 9).

[3] = Calcein AM viability assay with BSO; type: cell-based, human; settings: human, FRDA cells (fibroblasts from a Friedreich's Ataxia patient), BSO 1 mM alone, read-out: cell viability compared to control cells, BSO-alone
Procedure: (§1) FIG. 5 is a graph showing a Calcien AM viability assay of FRDA cells after 48 hour exposure to BSO [1 mM] with 1-4 [1 nM final].
(§2) FIG. 10 is a graph showing Calcein AM viability assay of FRDA cells after 48 hour exposure to BSO [1 mM] followed by addition of 2 [various concentrations].
(§3) FRDA cells have higher levels of ROS due to mitochondrial misfunction associated with frataxin expression and therefore serve as a good model for ROS protection. […] Calcein AM, a non-fluorescent, hydrophobic compound that easily permeates intact, live cells, was used as an indicator for cell viability.
(§4) This dose response is visualized in the fluorescent cell images shown in FIG. 11 with increased cell survival corresponding to increasing 2 in the nM range.

[4] = ABTS radical assay standardized against Trolox; type: biochemical; settings: ligand concentration 100 μM
Aβ1-40 [5] = assay: Turbidity assay of metal-induced amyloid aggregation; type: biochemical; settings: for disaggregation of pre-formed metal-induced Aβ1-40 aggregates (turbidity): copper(II) or zinc(II) aggregates, ligand added afterwards
Excerpt: Metal ions (copper and zinc) bind to a histidine rich domain in amyloid producing Aβ in the form of insoluble plaques. This process has been comprehensively studied and described in a number of recent reviews. The aggregation of amyloid can be followed by simple spectroscopic techniques such as turbidity and tyrosine fluorescence studies. These methods were used to investigate the ability of 1 to dissociate pre-formed amyloid aggregates upon addition of metal ions, as well as prevent amyloid aggregation.
Metal ions bind to a histidine rich domain in amyloid producing Aβ in the form of insoluble plaques. This process has been extensively studied and described in a number of recent reviews.

FRDA cells [6] = assay: Calcein AM viability assay with BSO; type: cell-based, human; settings: Homo sapiens, 48 hour BSO 1 mM; for viability at 0.001 µM: compound 1 nM final, read-out: cell viability compared to untreated control cells
Procedure: as §1, §2, §3, §4

[7] = log K constants with Zn^II; type: binding
Excerpt: (§5) The ligand is the backbone to PCTA, a potential MRI contrast agent explored in recent years and has been repurposed for Applicant's work.

[8] = log K constants with Cu^II; type: binding
Excerpt: as §5

[9] = LA/DHLA; cited from earlier work
Aβ1-40 [10] = assay: Tyr^10 fluorescence of Aβ1-40; type: biochemical
Excerpt: FIG. 2 is a graph showing the addition of ligands 1-4 to aggregated Aβ results in reconstitution of Tyr^10 fluorescence which was decreased due to aggregate formation.
To further determine the capability of 1 to prevent or disrupt metal-ion induced amyloid aggregation, Applicant's studied Tyr fluorescence intensity. Recent reports have also utilized the natural fluorescence of the native Tyr^10 in the Aβ1-40 sequence to study the conformational dynamics of amyloid folding as it relates to AD and/or production of H2O2. As Tyr^10 is located within proximity to the metal binding pocket in Aβ1-40 the fluorescence intensity of the phenolic side chain decreases during the folding process due to environmental changes that occur locally. This work was supported by circular dichroism spectra, which verified that fluorescence intensity decreased as the conformation of amyloid changed to beta-sheets. […] Applicant's hypothesis was that Tyr fluorescence intensity should be restored to control levels upon addition of compounds 1-4 (Chart 1) to a solution of pre-formed metal aggregates, as shown below in FIG. 2. […] Similar results were also obtained for amyloid samples co-incubated with 1-4 prior to metal ion addition.
The macrocyclic compound 2 (Chart 2) is also a chelator capable of preventing metal-induced amyloid formation as well as disaggregation. Metal ions bind to a histidine rich domain in amyloid producing Aβ in the form of insoluble plaques. This process has been extensively studied and described in a number of recent reviews. […] Moreover, amyloid aggregates formed by metal ion co-incubation can be disaggregated by the addition of compounds 1 or 2 (FIG. 12b).

MTT cytotoxicity assay = type: cell-based; settings: mouse, HT-22 hippocampal neuronal cells, HT-22 cells
Procedure: As these compounds show potential for future in vivo studies, the 3-(4,5-dimethythiazol-2-yl)-2,5-diphenyl tetrazolium bromide (MTT) assay was performed in order to test compounds 2, 3 of Chart 4 for cytotoxicity with HT-22 cells, which is a hippocampal neuronal cell line extracted from mice. This is a colorimetric assay that measures the mitochondrial activity of living cells in which MTT crosses into the mitochondria where it is reduced to media insoluble formazan (dark purple), which is later solubilized in DMSO and measured spectroscopically (λmax=540 nm). Since the reduction of MTT can only occur in living cells with undamaged mitochondria, this is a good assay to measure cell proliferation and cytotoxicity.
For the biological assays mouse hippocampal HT-22 cell line was used, incubated them at 37° C. in a humidified atmosphere 5% CO2, with Dulbecco's Modified Eagle Medium (500 ml) containing penicillin/streptomycin 100× (5 ml), Glutamine (100 mM, 5 ml), charcoal strip fetal bovine serum. […]
(3-(4,5-dimethylthiazol-2-yl)-2,5-diphenyltetrazolium bromide) cells were seeded in a 96 well plate with a density of 5000 cells per well (in 100 μL per well). […] Media is discarded again and 100 μL of DMSO are added to each well, rocked for 5 minutes and the absorbance (A510) was measured using a Molecular Devices Kinetic Microplate Reader.

[11] = Cu-ascorbate redox system with coumarin-3-carboxylic acid (CCA); type: biochemical; settings: added after two minutes co-incubation with CCA
Excerpt: As increased levels of ROS are associated with AD, Applicant's set out to investigate the antioxidant character of 1 compared to the heterocycles 2 and/or 3. […] Moreover, many of the pathways proposed to produce ROS leading to AD pathology involve metal ions. Applicant's therefore utilized the Cu-ascorbate redox system, Scheme 1, as a model to determine if the ligands could halt copper based redox activity under aerobic conditions:
Faller and co-workers employed this system to investigate the redox chemistry of amyloid systems with Cu. Coumarin-3-carboxylic acid (CCA), which generates fluorescent 7-hydroxy-CCA in the presence of hydroxyl radicals, was used to quantify the reduction of oxygen by copper redox-cycling in the presence of ascorbate.

In the case of `C1CNCCNCCNCCN1` [cyclen, 1,4,7,10-tetraazacyclododecane, reference compound], the “quenching of the DPPH radical” value ([1]; 1250 μM) is reported as “no activity”.

For `CCCCS(=N)(=O)CCC(N)C(=O)O` (centres unmarked) [BSO, 2-amino-4-(butylsulfonimidoyl)butanoic acid, reference compound], the “increase in ROS, BSO-treated cells (positive control)” value (FRDA cells [2]; BSO 1 mM alone) was ~1.8 fold and the viability at 48 h, 1 mM [3] was ~45%.

In the case of `C1CNCCNCCNCCN1` [Compound 2 (Chart 1)], the “Trolox equivalents (ABTS radical)” value [4] is reported as 0.23 Trolox equivalents, the “disaggregation of pre-formed metal-induced Aβ1-40 aggregates (turbidity)” value (Aβ1-40 [5]) is reported as “Aβ dis-aggregating agents, which Applicant's studies corroborate” and the viability at 0.001 µM (FRDA cells [6]) is reported as > 60%. The “log K constants Zn^II” value [7] was 16 and the “log K constants Cu^II” value [8] was 23.

For `O=C(O)CCCCC1CCSS1` (stereo not drawn) [LA, α-lipoic acid], the redox potential [9] is given as −320 mV.

In the case of `Oc1cc2nc(c1)CNCCNCCNC2` [Compound 2 (Chart 2)], the “decrease of [ROS] compared to the untreated cells” value (shortened to “decrease of [ROS]”) (FRDA cells [2]; 1.25 nM) is reported as 33%, the “decrease of [ROS]” value (FRDA cells [2]; 12.5 nM) is reported as 58% and the “decrease of [ROS]” value (FRDA cells [2]; 125 nM) is reported as 75%. The “decrease of [ROS]” value (FRDA cells [2]; 1.25 μM) was 87%, the “reconstitution of Tyr^10 fluorescence of aggregated Aβ1-40” value (Aβ1-40 [10]; ligand added to pre-formed metal aggregates) was “equally effective” and the “prevention of loss of Tyr^10 fluorescence of Aβ1-40” value (Aβ1-40 [10]; ligand co-incubated prior to metal ion addition, 24 hours) was “equally effective”. The “disaggregation of pre-formed metal-induced Aβ1-40 aggregates (turbidity)” value (Aβ1-40 [5]) was “disaggregated”, the “prevention of metal-induced Aβ1-40 aggregation (turbidity)” value (Aβ1-40 [5]; ligand co-incubated with amyloid before copper(II) or zinc(II) addition) was “prevents formation of aggregations” and the EC50 (FRDA cells [6]; read-out: EC50 protection against BSO assault (Calcein AM)) was 31.5 ± 4.96 nM. The “ability to reduce free radicals in solution (DPPH) versus 1” value [1] was “enhanced ability to reduce free radicals in solution”.

For `O=C(O)CN(CCN(CC(=O)O)CC(=O)O)CC(=O)O` [4 (Chart 1)], the “Trolox equivalents (ABTS radical)” value [4] was 0.15 Trolox equivalents, the viability at 0.001 µM (FRDA cells [6]) was > 60% and the “log K constants Zn^II” value [7] was 8.41. The “log K constants Cu^II” value [8] was 9.18.

For `O=C(NCCNc1nc(N2CCNCCNCCNCC2)nc(N2CCNCCNCCNCC2)n1)c1cc2ccccc2oc1=O` [3 (Chart 4), N-(2-((4,6-di(1,4,7,10-tetraazacyclododecan-1-yl)-1,3,5-triazin-2-yl)amino)ethyl)-2-oxo-2H-chromene-3-carboxamide], the EC50 at 48 h (MTT cytotoxicity assay) was 125 µM and the “quenching of the DPPH radical” value ([1]; concentration dependent, concentrations not given) was 52-64%.

In the case of “Aβ1-40: beta-amyloid peptide 1-40 with histidine rich metal binding site [reference compound]”, the “7-hydroxy-CCA signal after addition to running Cu-ascorbate system” value [11] is reported as “leveling of the 7-hydroxy-CCA signal”.
